Experimental data from patent US7902227B2, “C-7 isoxazolinyl quinolone / naphthyridine derivatives useful as antibacterial agents” (Janssen Pharmaceutica NV., priority 2008, dated 2011).
In brackets after ≈: the same amount, converted by molar mass.

Legend:
Type in all cases: cell-based
[1] = tested on: Staphylococcus aureus OC4172; test: In vitro antibacterial activity (MIC), microdilution broth method (NCCLS), strain A; conditions: cation adjusted Mueller-Hinton broth, 35° C., 16-20 hours
Protocol: (§1) Minimal inhibitory concentration (MIC) has been an indicator of in vitro antibacterial activity widely used in the art. The in vitro antimicrobial activity of representative compounds of the present invention was determined by the microdilution broth method following the test method from the National Committee for Clinical Laboratory Standards (NCCLS). This method is described in the NCCLS Document M7-A4, Vol. 17, No. 2, “Methods for Dilution Antimicrobial Susceptibility Test for Bacteria that Grow Aerobically—Fourth Edition”, which is incorporated herein by reference.
(§2) In this method two-fold serial dilutions of drug in cation adjusted Mueller-Hinton broth are added to wells in microdilution trays. The test organisms are prepared by adjusting the turbidity of actively growing broth cultures so that the final concentration of test organism after it is added to the wells is approximately 5×10^4 CFU/well.
(§3) Following inoculation of the microdilution trays, the trays are incubated at 35° C. for 16-20 hours and then read. […] The amount of growth in the wells containing the test compound is compared with the amount of growth in the growth-control wells (no test compound) used in each tray. As set forth in Table 4, representative compounds of the present invention were tested against a variety of pathogenic bacteria resulting in a range of activities depending on the organism tested.

[2] = tested on: strain C, fluoroquinolone-resistant clinical isolate of Streptococcus pneumoniae; test: In vitro antibacterial activity (MIC), microdilution broth method (NCCLS), strain C; conditions: read-out: In vitro Antibacterial Activity MIC, C
Protocol: as §1, §2, §3

[3] = tested on: strain D, fluoroquinolone-resistant clinical isolate of Streptococcus pneumoniae; test: In vitro antibacterial activity (MIC), microdilution broth method (NCCLS), strain D; conditions: read-out: In vitro Antibacterial Activity MIC, D
Protocol: as §1, §2, §3

[4] = tested on: Streptococcus pneumoniae ATCC 49619; test: In vitro antibacterial activity (MIC), microdilution broth method (NCCLS), strain E; conditions: ATCC49619, 35° C., 16-20 hours
Protocol: as §1, §2, §3

[5] = tested on: strain B, fluoroquinolone-resistant clinical isolate of Streptococcus pneumoniae; test: In vitro antibacterial activity (MIC), microdilution broth method (NCCLS), strain B; conditions: read-out: In vitro Antibacterial Activity MIC, B
Protocol: as §1, §2, §3

COc1ccc(C2=NOC3CN(c4c(F)cc5c(=O)c(C(=O)O)cn([C@@H]6C[C@@H]6F)c5c4OC)CC23)cc1 (relative stereo) [ID No. 126, 7-[cis-3-(4-Methoxyphenyl)-3a,4,6,6a-tetrahydropyrrolo[3,4-d]isoxazol-5-yl]-1-[(1R,2S)-2-fluorocyclopropyl]-6-fluoro-8-methoxy-4-oxo-1,4-dihydro-quinoline-3-carboxylic acid]
MIC [1]: 0.03 µg/mL (≈ 0.0587 µM) | MIC [2]: 4 µg/mL (≈ 7.82 µM) | MIC [3]: 2 µg/mL (≈ 3.91 µM) | MIC [4]: 0.5 µg/mL (≈ 0.978 µM)

CCOC(=O)C1=NOC2CN(c3c(F)cc4c(=O)c(C(=O)O)cn(C5CC5)c4c3OC)CC12 (stereo not drawn) [ID No. 124, 7-[cis-3-(3-Ethoxycarbonyl)-3a,4,6,6a-tetrahydropyrrolo[3,4-d]isoxazol-5-yl]-1-cyclopropyl-8-methoxy-6-fluoro-4-oxo-1,4-dihydroquinoline-3-carboxylic acid]
MIC [1]: 0.25 µg/mL (≈ 0.544 µM) | MIC [5]: > 16 µg/mL | MIC [2]: > 16 µg/mL | MIC [3]: > 16 µg/mL | MIC [4]: 8 µg/mL (≈ 17.4 µM)

COc1c(N2C[C@@H]3ON=C(c4cccnc4)[C@@H]3C2)c(F)cc2c(=O)c(C(=O)O)cn(C3CC3)c12 (relative stereo) [ID No. 123, 7-[cis-3-(3-Pyridyl)-3a,4,6,6a-tetrahydropyrrolo[3,4-d]isoxazol-5-yl]-1-cyclopropyl-8-methoxy-6-fluoro-4-oxo-1,4-dihydroquinoline-3-carboxylic acid]
MIC [1]: 0.06 µg/mL (≈ 0.129 µM) | MIC [5]: 8 µg/mL (≈ 17.2 µM) | MIC [2]: 8 µg/mL (≈ 17.2 µM) | MIC [3]: 2 µg/mL (≈ 4.31 µM) | MIC [4]: 0.5 µg/mL (≈ 1.08 µM)

CCOC(=O)C1=NOC2CN(c3nc4c(cc3F)c(=O)c(C(=O)O)cn4-c3ccc(F)cc3F)CC12 (centres unmarked) [ID No. 106, 1-(2,4-Difluoro-phenyl)-7-(3-ethoxycarbonyl-3a,4,6,6a-tetrahydro-pyrrolo[3,4-d]isoxazol-5-yl)-6-fluoro-4-oxo-1,4-dihydro-[1,8]naphthyridine-3-carboxylic acid]
MIC [1]: 0.12 µg/mL (≈ 0.239 µM) | MIC [5]: > 16 µg/mL | MIC [2]: > 16 µg/mL | MIC [3]: > 16 µg/mL | MIC [4]: 8 µg/mL (≈ 15.9 µM)

NCC1=NOC2CN(c3nc4c(cc3F)c(=O)c(C(=O)O)cn4C3CC3)CC12 (centres unmarked) [ID No. 201, 7-(3-Aminomethyl-3a,4,6,6a-tetrahydro-pyrrolo[3,4-d]isoxazol-5-yl)-1-cyclopropyl-6-fluoro-4-oxo-1,4-dihydro-[1,8]naphthyridine-3-carboxylic acid]
MIC [1]: 0.5 µg/mL (≈ 1.29 µM) | MIC [5]: > 16 µg/mL | MIC [2]: > 16 µg/mL | MIC [3]: > 16 µg/mL | MIC [4]: 4 µg/mL (≈ 10.3 µM)

CCOC(=O)C1=NOC2CN(c3nc4c(cc3F)c(=O)c(C(=O)O)cn4C3CC3)CC12 (centres unmarked) [ID No. 116, 1-Cyclopropyl-7-(3-ethoxycarbonyl-3a,4,6,6a-tetrahydro-pyrrolo[3,4-d]isoxazol-5-yl)-6-fluoro-4-oxo-1,4-dihydro-[1,8]naphthyridine-3-carboxylic acid]
MIC [1]: 0.12 µg/mL (≈ 0.279 µM) | MIC [5]: > 16 µg/mL | MIC [2]: > 16 µg/mL | MIC [3]: > 16 µg/mL | MIC [4]: 4 µg/mL (≈ 9.29 µM)

O=C(O)c1cn(-c2ccc(F)cc2F)c2nc(N3CC4ON=C(c5ccc(Cl)cc5)C4C3)c(F)cc2c1=O (centres unmarked) [ID No. 101, 7-[3-(4-Chloro-phenyl)-3a,4,6,6a-tetrahydro-pyrrolo[3,4-d]isoxazol-5-yl]-1-(2,4-difluoro-phenyl)-6-fluoro-4-oxo-1,4-dihydro-[1,8]naphthyridine-3-carboxylic acid]
MIC [1]: 0.06 µg/mL (≈ 0.111 µM) | MIC [5]: 1 µg/mL (≈ 1.85 µM) | MIC [2]: 2 µg/mL (≈ 3.7 µM) | MIC [3]: 4 µg/mL (≈ 7.4 µM) | MIC [4]: 1 µg/mL (≈ 1.85 µM)

NCC1=NOC2CN(c3nc4c(cc3F)c(=O)c(C(=O)O)cn4-c3ccc(F)cc3F)CC12 (centres unmarked) [ID No. 200, 7-(3-Aminomethyl-3a,4,6,6a-tetrahydro-pyrrolo[3,4-d]isoxazol-5-yl)-1-(2,4-difluoro-phenyl)-6-fluoro-4-oxo-1,4-dihydro-[1,8]naphthyridine-3-carboxylic acid]
MIC [1]: 0.12 µg/mL (≈ 0.261 µM) | MIC [5]: > 16 µg/mL | MIC [2]: > 16 µg/mL | MIC [3]: > 16 µg/mL | MIC [4]: 1 µg/mL (≈ 2.18 µM)

C[C@H]1COc2c(N3CC4ON=C(CN)C4C3)c(F)cc3c(=O)c(C(=O)O)cn1c23 (some centres unmarked) [ID No. 204]
MIC [1]: 0.25 µg/mL (≈ 0.621 µM) | MIC [2]: > 16 µg/mL | MIC [3]: > 16 µg/mL | MIC [4]: 16 µg/mL (≈ 39.8 µM)

COc1c(N2C[C@@H]3ON=C(c4ccccn4)[C@@H]3C2)c(F)cc2c(=O)c(C(=O)O)cn(C3CC3)c12 (relative stereo) [ID No. 122, 7-[cis-3-(2-pyridyl)-3a,4,6,6a-tetrahydropyrrolo[3,4-d]isoxazol-5-yl]-1-cyclopropyl-8-methoxy-6-fluoro-4-oxo-1,4-dihydroquinoline-3-carboxylic acid]
MIC [1]: < 0.12 µg/mL | MIC [5]: 16 µg/mL (≈ 34.4 µM) | MIC [2]: 16 µg/mL (≈ 34.4 µM) | MIC [3]: 2 µg/mL (≈ 4.31 µM) | MIC [4]: 1 µg/mL (≈ 2.15 µM)

COc1c(N2CC3ON=C(CN)C3C2)c(F)cc2c(=O)c(C(=O)O)cn(C3CC3)c12 (centres unmarked) [ID No. 202]
MIC [1]: 0.06 µg/mL (≈ 0.144 µM) | MIC [2]: 16 µg/mL (≈ 38.4 µM) | MIC [3]: > 16 µg/mL | MIC [4]: 1 µg/mL (≈ 2.4 µM)

COc1ccc(C2=NOC3CN(c4nc5c(cc4F)c(=O)c(C(=O)O)cn5-c4ccc(F)cc4F)CC23)cn1 (centres unmarked) [ID No. 102, 1-(2,4-Difluoro-phenyl)-6-fluoro-7-[3-(6-methoxy-pyridin-3-yl)-3a,4,6,6a-tetrahydro-pyrrolo[3,4-d]isoxazol-5-yl]-4-oxo-1,4-dihydro-[1,8]naphthyridine-3-carboxylic acid]
MIC [1]: 0.06 µg/mL (≈ 0.112 µM) | MIC [5]: 4 µg/mL (≈ 7.44 µM) | MIC [2]: 16 µg/mL (≈ 29.8 µM) | MIC [3]: 2 µg/mL (≈ 3.72 µM) | MIC [4]: 1 µg/mL (≈ 1.86 µM)

O=C(O)c1cn(-c2ccc(F)cc2F)c2nc(N3CC4ON=C(CO)C4C3)c(F)cc2c1=O (centres unmarked) [ID No. 107, 1-(2,4-Difluoro-phenyl)-6-fluoro-7-(3-hydroxymethyl-3a,4,6,6a-tetrahydro-pyrrolo[3,4-d]isoxazol-5-yl)-4-oxo-1,4-dihydro-[1,8]naphthyridine-3-carboxylic acid]
MIC [1]: 0.12 µg/mL (≈ 0.261 µM) | MIC [5]: > 16 µg/mL | MIC [2]: > 16 µg/mL | MIC [3]: > 16 µg/mL | MIC [4]: 2 µg/mL (≈ 4.34 µM)

O=C(O)c1cn(C2CC2)c2nc(N3CC4ON=C(c5cccnc5)C4C3)c(F)cc2c1=O (centres unmarked) [ID No. 114, 1-Cyclopropyl-6-fluoro-4-oxo-7-(3-pyridin-3-yl-3a,4,6,6a-tetrahydro-pyrrolo[3,4-d]isoxazol-5-yl)-1,4-dihydro-[1,8]naphthyridine-3-carboxylic acid]
MIC [1]: 0.12 µg/mL (≈ 0.276 µM) | MIC [2]: 2 µg/mL (≈ 4.59 µM) | MIC [3]: 8 µg/mL (≈ 18.4 µM) | MIC [4]: 1 µg/mL (≈ 2.3 µM)

COc1ccc(C2=NOC3CN(c4c(F)cc5c(=O)c(C(=O)O)cn6c5c4OC[C@@H]6C)CC23)cc1 (stereo partly drawn) [ID No. 128, 7-[cis-3-(4-Methoxyphenyl)-3a,4,6,6a-tetrahydropyrrolo[3,4-d]isoxazol-5-yl]S-(−)-9,10-difluoro-2,3-dihydro-3-methyl-7-oxo-7H-pyrido-[1,2,3-de][1,4]-benzoxazine-6-carboxylic acid]
MIC [1]: 0.12 µg/mL (≈ 0.25 µM) | MIC [2]: 4 µg/mL (≈ 8.34 µM) | MIC [3]: 4 µg/mL (≈ 8.34 µM) | MIC [4]: 1 µg/mL (≈ 2.09 µM)

COc1c(N2CC3ON=C(CN)C3C2)c(F)cc2c(=O)c(C(=O)O)cn([C@@H]3C[C@@H]3F)c12 (some centres unmarked) [ID No. 203]
MIC [1]: 0.12 µg/mL (≈ 0.276 µM) | MIC [2]: > 16 µg/mL | MIC [3]: > 16 µg/mL | MIC [4]: 2 µg/mL (≈ 4.6 µM)

COc1ccc(C2=NOC3CN(c4c(F)cc5c(=O)c(C(=O)O)cn(-c6nc(N)c(F)cc6F)c5c4Cl)CC23)cc1 (centres unmarked) [ID No. 133, 1-(6-Amino-3,5-difluoro-pyridin-2-yl)-8-chloro-6-fluoro-7-[3-(4-methoxy-phenyl)-3a,4,6,6a-tetrahydro-pyrrolo[3,4-d]isoxazol-5-yl]-4-oxo-1,4-dihydro-quinoline-3-carboxylic acid]
MIC [1]: 0.25 µg/mL (≈ 0.427 µM) | MIC [2]: 8 µg/mL (≈ 13.7 µM) | MIC [3]: 16 µg/mL (≈ 27.3 µM) | MIC [4]: 2 µg/mL (≈ 3.41 µM)

O=C(O)c1cn(C2CC2)c2nc(N3CC4ON=C(c5ccc(Cl)cc5)C4C3)c(F)cc2c1=O (centres unmarked) [ID No. 110, 7-[3-(4-Chloro-phenyl)-3a,4,6,6a-tetrahydro-pyrrolo[3,4-d]isoxazol-5-yl]-1-cyclopropyl-6-fluoro-4-oxo-1,4-dihydro-[1,8]naphthyridine-3-carboxylic acid]
MIC [1]: 0.06 µg/mL (≈ 0.128 µM) | MIC [2]: 8 µg/mL (≈ 17.1 µM) | MIC [4]: 0.5 µg/mL (≈ 1.07 µM)

C[C@H]1COc2c(N3CC4ON=C(c5cccnc5)C4C3)c(F)cc3c(=O)c(C(=O)O)cn1c23 (stereo partly drawn) [ID No. 130, 7-[cis-3-(3-pyridyl)-3a,4,6,6a-tetrahydropyrrolo[3,4-d]isoxazol-5-yl]S-(−)-9,10-difluoro-2,3-dihydro-3-methyl-7-oxo-7H-pyrido-[1,2,3-de][1,4]-benzoxazine-6-carboxylic acid]
MIC [1]: 0.25 µg/mL (≈ 0.555 µM) | MIC [2]: 16 µg/mL (≈ 35.5 µM) | MIC [3]: 16 µg/mL (≈ 35.5 µM) | MIC [4]: 2 µg/mL (≈ 4.44 µM)

COc1ccc(C2=NO[C@H]3CN(c4c(F)cc5c(=O)c(C(=O)O)cn(C6CC6)c5c4OC)C[C@@H]23)cc1 (relative stereo) [ID No. 120, 7-[cis-3-(4-Methoxyphenyl)-3a,4,6,6a-tetrahydropyrrolo[3,4-d]isoxazol-5-yl]-1-cyclopropyl-8-methoxy-6-fluoro-4-oxo-1,4-dihydroquinoline-3-carboxylic acid]
MIC [1]: 0.06 µg/mL (≈ 0.122 µM) | MIC [2]: 4 µg/mL (≈ 8.11 µM) | MIC [3]: 2 µg/mL (≈ 4.05 µM) | MIC [4]: 1 µg/mL (≈ 2.03 µM)
